Source: US9969694B2, “N-(arylalkyl)-N′-pyrazolyl-urea, thiourea, guanidine and cyanoguanidine compounds as TrkA kinase inhibitors” (Array BioPharma Inc., priority 2012, dated 2018)

Biological target: T1, His-tagged recombinant human TrkA (Homo sapiens, UniProt P04629)
T1 construct: 6HIS tagged cytoplasmic domain from Invitrogen, Catalog No. PV3144; purchased Invitrogen PV3144
Assay: TrkA Kinase Binding Assay (LanthaScreen Eu)
Settings: averaged IC50; TR-FRET binding, 60 min, 22° C.; read-out: TrkA Enzyme IC50
Experimental: TrkA binding activity was determined in a TrkA LanthaScreen™ Eu Kinase Binding Assay. 5 nM His-tagged recombinant human TrkA (6HIS tagged cytoplasmic domain from Invitrogen, Catalog No. PV3144) was incubated with 4 nM Alexa-Fluor® Tracer 236 (Invitrogen Cat. No. PV5592), 2 nM biotinylated anti-His (Invitrogen Cat. No. PV6090), and 2 nM europium-labeled Streptavidin (Invitrogen Cat. No. PV5899), in buffer (25 mM MOPS, pH 7.5, 5 mM MgCl2, 0.005% Triton X-100). Three fold serial dilutions of compounds of the invention in DMSO were added to a final percentage of 2% DMSO. After 60-minute incubation at 22° C., the reaction was measured using the EnVision mutlimode plate reader (PerkinElmer) via TR-FRET dual wavelength detection at […]. The percent of control was calculated using a ratiometric emission factor. The IC50 values were determined by fitting a four parameter model to the percent of control data.
Table A provides averaged IC50 values for compounds of the invention when tested in the assay of Example A, where A represents an averaged IC50 value <100 nM; B represents an averaged IC50 value from 100 to 1,000 nM; and C represents an average 1050 value above 1000 nM.

T1 sequence (P04629 440-796 limits assumed): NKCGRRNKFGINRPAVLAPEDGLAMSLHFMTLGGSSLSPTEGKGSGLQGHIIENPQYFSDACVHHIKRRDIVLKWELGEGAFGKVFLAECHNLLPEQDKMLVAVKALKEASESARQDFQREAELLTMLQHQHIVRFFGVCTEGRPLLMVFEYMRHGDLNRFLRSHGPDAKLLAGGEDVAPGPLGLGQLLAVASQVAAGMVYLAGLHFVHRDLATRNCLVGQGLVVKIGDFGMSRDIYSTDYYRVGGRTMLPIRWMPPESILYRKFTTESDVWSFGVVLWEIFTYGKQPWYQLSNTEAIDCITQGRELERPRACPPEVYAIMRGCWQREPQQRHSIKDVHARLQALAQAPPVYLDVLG

IC50 [nM] | Compound
< 100 | 5-(3-(2-(difluoromethoxy)-5-(methoxymethyl)benzyl)ureido)-N,4-dimethyl-1-phenyl-1H-pyrazole-3-carboxamide [Example 51]
< 100 | COCc1ccc(C2CC2)c(CNC(=O)Nc2c(C)c(-c3cnc(C)nc3)nn2-c2ccccc2)c1 [Example 1, 1-(2-cyclopropyl-5-(methoxymethyl)benzyl)-3-(4-methyl-3-(2-methylpyrimidin-5-yl)-1-phenyl-1H-pyrazol-5-yl)urea]
< 100 | CCOc1nn(-c2ccccc2)c(NC(=O)NCc2cc(COC)ccc2C2CC2)c1C [Example 2, 1-(2-cyclopropyl-5-(methoxymethyl)benzyl)-3-(3-ethoxy-4-methyl-1-phenyl-1H-pyrazol-5-yl)urea]
< 100 | COCc1ccc(C2CC2)c(CNC(=O)Nc2c(C)c(-c3ccc(C)nc3)nn2-c2ccccc2)c1 [Example 3, 1-(2-cyclopropyl-5-(methoxymethyl)benzyl)-3-(4-methyl-3-(6-methylpyridin-3-yl)-1-phenyl-1H-pyrazol-5-yl)urea]
< 100 | COCc1ccc(C2CC2)c(CNC(=O)Nc2c(C)c(-c3ccc(=O)n(C)c3)nn2-c2ccccc2)c1 [Example 4, 1-(2-cyclopropyl-5-(methoxymethyl)benzyl)-3-(4-methyl-3-(1-methyl-6-oxo-1,6-dihydropyridin-3-yl)-1-phenyl-1H-pyrazol-5-yl)urea]
< 100 | COCc1ccc(C2CC2)c(CNC(=O)Nc2c(C)c(C)nn2-c2ccccc2)c1 [Example 5, 1-(2-cyclopropyl-5-(methoxymethyl)benzyl)-3-(3,4-dimethyl-1-phenyl-1H-pyrazol-5-yl)urea]
< 100 | COCc1ccc(C2CC2)c(CNC(=O)Nc2c(C)c(-c3cnn(C)c3)nn2-c2ccccc2)c1 [Example 6, 1-(2-cyclopropyl-5-(methoxymethyl)benzyl)-3-(1′,4-dimethyl-1-phenyl-1H,1′H-[3,4′-bipyrazol]-5-yl)urea]
< 100 | COCc1ccc(C2CC2)c(CNC(=O)Nc2c(C)c(-c3ccn(C)c(=O)c3)nn2-c2ccccc2)c1 [Example 7, 1-(2-cyclopropyl-5-(methoxymethyl)benzyl)-3-(4-methyl-3-(1-methyl-2-oxo-1,2-dihydropyridin-4-yl)-1-phenyl-1H-pyrazol-5-yl)urea]
< 100 | COCc1ccc(C2CCC2)c(CNC(=O)Nc2c(C)c(-c3ccc(C)nc3)nn2-c2ccccc2)c1 [Example 8, 1-(2-cyclobutyl-5-(methoxymethyl)benzyl)-3-(4-methyl-3-(6-methylpyridin-3-yl)-1-phenyl-1H-pyrazol-5-yl)urea]
< 100 | COCc1ccc(C2CCC2)c(CNC(=O)Nc2c(C)c(-c3ccc(=O)n(C)c3)nn2-c2ccccc2)c1 [Example 9, 1-(2-cyclobutyl-5-(methoxymethyl)benzyl)-3-(4-methyl-3-(1-methyl-6-oxo-1,6-dihydropyridin-3-yl)-1-phenyl-1H-pyrazol-5-yl)urea]
< 100 | COCc1ccc(C2CCC2)c(CNC(=O)Nc2c(C)c(-c3cnn(C)c3)nn2-c2ccccc2)c1 [Example 11, 1-(2-cyclobutyl-5-(methoxymethyl)benzyl)-3-(1′,4-dimethyl-1-phenyl-1H,1′H-[3,4′-bipyrazol]-5-yl)urea]
< 100 | COCc1ccc(C2CCCC2)c(CNC(=O)Nc2c(C)c(-c3cnc(C)nc3)nn2-c2ccccc2)c1 [Example 12, 1-(2-cyclopentyl-5-(methoxymethyl)benzyl)-3-(4-methyl-3-(2-methylpyrimidin-5-yl)-1-phenyl-1H-pyrazol-5-yl)urea]
< 100 | COCc1ccc(C2CCCC2)c(CNC(=O)Nc2c(C)c(-c3ccc(C)nc3)nn2-c2ccccc2)c1 [Example 13, 1-(2-cyclopentyl-5-(methoxymethyl)benzyl)-3-(4-methyl-3-(6-methylpyridin-3-yl)-1-phenyl-1H-pyrazol-5-yl)urea]
< 100 | COCc1ccc(OCC2CC2)c(CNC(=O)Nc2c(C)c(-c3cnn(C)c3)nn2-c2ccccc2)c1 [Example 14, 1-(2-(cyclopropylmethoxy)-5-(methoxymethyl)benzyl)-3-(1′,4-dimethyl-1-phenyl-1H,1′H-[3,4′-bipyrazol]-5-yl)urea]
< 100 | CCOc1ccc(C2CC2)c(CNC(=O)Nc2c(C)c(-c3cnn(C)c3)nn2-c2ccccc2)c1 [Example 15, 1-(2-cyclopropyl-5-ethoxybenzyl)-3-(1′,4-dimethyl-1-phenyl-1H,1′H-[3,4′-bipyrazol]-5-yl)urea]
100 to 1000 | COC(C)c1ccc(C2CCC2)c(CNC(=O)Nc2c(C)c(-c3cnc(C)nc3)nn2-c2ccccc2)c1 (stereo not drawn) [Example 16, 1-(2-cyclobutyl-5-(1-methoxyethyl)benzyl)-3-(4-methyl-3-(2-methylpyrimidin-5-yl)-1-phenyl-1H-pyrazol-5-yl)urea]
< 100 | CCOc1ccc(COC)cc1CNC(=O)Nc1c(C)c(-c2cnn(C)c2)nn1-c1ccccc1 [Example 17, 1-(1′,4-dimethyl-1-phenyl-1H,1′H-[3,4′-bipyrazol]-5-yl)-3-(2-ethoxy-5-(methoxymethyl)benzyl)urea]
< 100 | COCc1ccc(OC(F)F)c(CNC(=O)Nc2c(C)c(-c3cnn(C)c3)nn2-c2ccccc2)c1 [Example 20, 1-(2-(difluoromethoxy)-5-(methoxymethyl)benzyl)-3-(1′,4-dimethyl-1-phenyl-1H,1′H-[3,4′-bipyrazol]-5-yl)urea]
< 100 | COCc1ccc(OC(F)F)c(CNC(=O)Nc2c(C)c(-c3ccc(C)nc3)nn2-c2ccccc2)c1 [Example 21, 1-(2-(difluoromethoxy)-5-(methoxymethyl)benzyl)-3-(4-methyl-3-(6-methylpyridin-3-yl)-1-phenyl-1H-pyrazol-5-yl)urea]
100 to 1000 | COCc1ccc(OC(F)(F)F)c(CNC(=O)Nc2c(C)c(-c3cnn(C)c3)nn2-c2ccccc2)c1 [Example 22, 1-(1′,4-dimethyl-1-phenyl-1H,1′H-[3,4′-bipyrazol]-5-yl)-3-(5-(methoxymethyl)-2-(trifluoromethoxy)benzyl)urea]
< 100 | COCc1ccc(OC(F)(F)F)c(CNC(=O)Nc2c(C)c(-c3ccc(C)nc3)nn2-c2ccccc2)c1 [Example 23, 1-(5-(methoxymethyl)-2-(trifluoromethoxy)benzyl)-3-(4-methyl-3-(6-methylpyridin-3-yl)-1-phenyl-1H-pyrazol-5-yl)urea]
100 to 1000 | COCc1ccc(C2(OC)CCC2)c(CNC(=O)Nc2c(C)c(-c3ccc(C)nc3)nn2-c2ccccc2)c1 [Example 24, 1-(2-(1-methoxycyclobutyl)-5-(methoxymethyl)benzyl)-3-(4-methyl-3-(6-methylpyridin-3-yl)-1-phenyl-1H-pyrazol-5-yl)urea]
< 100 | COCc1ccc(C2CC2(F)F)c(CNC(=O)Nc2c(C)c(-c3cnn(C)c3)nn2-c2ccccc2)c1 (stereo not drawn) [Example 25, 1-(2-(2,2-difluorocyclopropyl)-5-(methoxymethyl)benzyl)-3-(1′,4-dimethyl-1-phenyl-1H,1′H-[3,4′-bipyrazol]-5-yl)urea 2,2,2-trifluoroacetate]
100 to 1000 | COCc1cccc(C(NC(=O)Nc2c(C)c(-c3ccc(=O)n(C)c3)nn2-c2ccccc2)C2CC2)c1 (stereo not drawn) [Example 26, 1-(cyclopropyl(3-(methoxymethyl)phenyl)methyl)-3-(4-methyl-3-(1-methyl-6-oxo-1,6-dihydropyridin-3-yl)-1-phenyl-1H-pyrazol-5-yl)urea]
100 to 1000 | COCc1cccc(C(NC(=O)Nc2c(C)c(-c3ccn(C)c(=O)c3)nn2-c2ccccc2)C2CC2)c1 (stereo not drawn) [Example 27, 1-(cyclopropyl(3-(methoxymethyl)phenyl)methyl)-3-(4-methyl-3-(1-methyl-2-oxo-1,2-dihydropyridin-4-yl)-1-phenyl-1H-pyrazol-5-yl)urea]
100 to 1000 | COCc1cccc(C(NC(=O)Nc2c(C)c(-c3cnn(C)c3)nn2-c2ccccc2)C2CC2)c1 (stereo not drawn) [Example 28, 1-(cyclopropyl(3-(methoxymethyl)phenyl)methyl)-3-(1′,4-dimethyl-1-phenyl-1H,1′H-[3,4′-bipyrazol]-5-yl)urea]
100 to 1000 | COCc1cccc(C(C)NC(=O)Nc2c(C)c(-c3cnn(C)c3)nn2-c2ccccc2)c1 (stereo not drawn) [Example 29, 1-(1′,4-dimethyl-1-phenyl-1H,1′H-[3,4′-bipyrazol]-5-yl)-3-(1-(3-(methoxymethyl)phenyl)ethyl)urea 2,2,2-trifluoroacetate]
100 to 1000 | COCc1ccc(C2CC2)c(C(C)NC(=O)Nc2c(C)c(-c3cnn(C)c3)nn2-c2ccccc2)c1 (stereo not drawn) [Example 30, 1-(1-(2-cyclopropyl-5-(methoxymethyl)phenyl)ethyl)-3-(1′,4-dimethyl-1-phenyl-1H,1′H-[3,4′-bipyrazol]-5-yl)urea]

Compound | IC50 [nM]
COCc1ccc(OC2CCC2)c(CNC(=O)Nc2c(C)c(-c3cnn(C)c3)nn2-c2ccccc2)c1 [Example 18, 1-(2-cyclobutoxy-5-(methoxymethyl)benzyl)-3-(1′,4-dimethyl-1-phenyl-1H,1′H-[3,4′-bipyrazol]-5-yl)urea] | 100 to 1000
COCc1ccc(OC2CCC2)c(CNC(=O)Nc2c(C)c(-c3ccc(C)nc3)nn2-c2ccccc2)c1 [Example 19, 1-(2-cyclobutoxy-5-(methoxymethyl)benzyl)-3-(4-methyl-3-(6-methylpyridin-3-yl)-1-phenyl-1H-pyrazol-5-yl)urea] | < 100
